Assay results as given in the NIST ThermoML archive (doi:10.1021/acs.jced.7b00107).
± gives the expanded uncertainty stated by the source.

Test: Molar enthalpy of transition or fusion
Details: Adiabatic calorimetry

With `Cl.NC12CC3CC(CC(C3)C1)C2` [1-aminoadamantane hydrochloride] the “Molar enthalpy of transition or fusion” value (Crystal 2) was 0.0366 ± 0.000717 kcal/mol and the “Molar enthalpy of transition or fusion” value (Crystal 3) was 0.0108 ± 0.000717 kcal/mol.
